Assay results: publication PMC10460844, “Real‐Time Monitoring of Multitarget Antimicrobial Mechanisms of Peptoids Using Label‐Free Imaging with Optical Diffraction Tomography” (Advanced Science, 2023)
≈ marks a conversion by molar mass, not a printed value. Structures can show the parent of a compound that is named as a salt. Square brackets hold non-standard residues; d marks the D form. Peptide text beside a SMILES is read from it. Gly(N(CH2)2(3-indolyl)) = O=C(O)CNCCc1c[nH]c2ccccc12; Nspe = C[C@H](NCC(=O)O)c1ccccc1; Nlys = NCCCCNCC(=O)O

Assays:
rat erythrocytes = experiment: Hemolysis assay; assay type: cell-based; conditions: for HC10 / HC50: red cells of rat
Summary of the method: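 Washed Sprague-Dawley rat erythrocytes (10% suspension in PBS pH 7.4) mixed with peptoids (0–100 µM), 60 min at 37 °C; supernatant A540 expressed as % of 1% Triton X-100 lysis. HC10/HC50 are concentrations giving 10%/50% hemolysis; Hmax is hemolysis at 100 µM.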

E. coli ATCC 25922 = assay type: cell-based, Escherichia coli; conditions: ATCC 25922
Description: (§1) The antibacterial activity of the peptoids was evaluated against gram‐positive (Staphylococcus aureus, ATCC 25 923) and gram‐negative (Escherichia coli, ATCC 25 922) bacteria. […] The MIC of each peptoid was determined using a broth dilution assay. For each assay, the primary culture of either S. aureus or E. coli was grown overnight in cation‐adjusted Mueller Hinton broth 2 (MHB2) media at 37 °C with shaking. A secondary culture was prepared the next day, grown for 3–4 h, and then diluted in MHB2 media with a final concentration of 0.001% acetic acid and 0.02% bovine serum albumin to obtain a calculated optical density (OD) of 0.001. This corresponded to ≈2–5 × 10^5 colony‐forming units (CFU mL^−1) of bacteria. Using 96‐well polypropylene plates (Eppendorf, Hamburg, Germany), 100 µL of 2–5 × 10^5 CFU mL^−1 bacteria were added in triplicate for each peptoid. Each peptoid was assayed at six different concentrations in two‐fold serial dilutions. The maximum peptoid concentration was 25 µM. […] The MIC value determination was performed in triplicate. The MIC was defined as the lowest peptoid concentration that prevented turbidity during visual inspection.

S. aureus ATCC 25923 = assay type: cell-based, Staphylococcus aureus; conditions: ATCC 25923
Description: as §1

| Compound | Hmax (100 µM) (rat erythrocytes) [%] | HC10 (rat erythrocytes) [µM] | HC50 (rat erythrocytes) [µM] | MIC E. coli ATCC25922 (E. coli ATCC 25922) [µM] | MIC S. aureus ATCC25923 (S. aureus ATCC 25923) [µM] |
| --- | --- | --- | --- | --- | --- |
| C[C@@H](c1ccccc1)N(CC(=O)N(CCCCN)CC(=O)N(CC(=O)N(CC(=O)N(CCCCN)CC(=O)N(CC(=O)N(CC(=O)N(CCCCN)CC(=O)N(CCc1c[nH]c2ccccc12)CC(=O)N(CCc1c[nH]c2ccccc12)CC(N)=O)[C@@H](C)c1ccccc1)[C@@H](C)c1ccccc1)[C@@H](C)c1ccccc1)[C@@H](C)c1ccccc1)C(=O)CN(C(=O)CNCCCCN)[C@@H](C)c1ccccc1 [11-HCl] (H-[Nlys][Nspe][Nspe][Nlys][Nspe][Nspe][Nlys][Nspe][Nspe][Nlys][Gly(N(CH2)2(3-indolyl))][Gly(N(CH2)2(3-indolyl))]-NH2) | 113.9±1.7 | 10.1 | 21.5 | 3.1 | 3.1 |
| C[C@@H](c1ccccc1)N(CC(N)=O)C(=O)CN(C(=O)CN(CCCCN)C(=O)CN(C(=O)CN(C(=O)CN(CCCCN)C(=O)CN(C(=O)CN(C(=O)CN(CCCCN)C(=O)CN(CCc1c[nH]c2ccccc12)C(=O)CN(CCc1c[nH]c2ccccc12)C(=O)CNCCCCN)[C@@H](C)c1ccccc1)[C@@H](C)c1ccccc1)[C@@H](C)c1ccccc1)[C@@H](C)c1ccccc1)[C@@H](C)c1ccccc1 [14-AcOH] | 100.7±17.2 | 14.9 | 51.8 | 3.1 (≈ 5.88 µg/mL) | 1.6 (≈ 3.04 µg/mL) |
| C[C@@H](c1ccccc1)N(CC(N)=O)C(=O)CN(C(=O)CN(CCCCN)C(=O)CN(C(=O)CN(C(=O)CN(CCCCN)C(=O)CN(C(=O)CN(C(=O)CN(CCCCN)C(=O)CN(CCc1c[nH]c2ccccc12)C(=O)CN(CCc1c[nH]c2ccccc12)C(=O)CNCCCCN)[C@@H](C)c1ccccc1)[C@@H](C)c1ccccc1)[C@@H](C)c1ccccc1)[C@@H](C)c1ccccc1)[C@@H](C)c1ccccc1 [14-HCl] | 75.3±5.0 | 19.2 | 68.2 | 3.1 | 3.1 |
| C[C@@H](c1ccccc1)N(CC(N)=O)C(=O)CN(C(=O)CN(CCCCN)C(=O)CN(C(=O)CN(CCc1c[nH]c2ccccc12)C(=O)CN(CCCCN)C(=O)CN(CCc1c[nH]c2ccccc12)C(=O)CN(C(=O)CN(CCCCN)C(=O)CN(C(=O)CN(C(=O)CNCCCCN)[C@@H](C)c1ccccc1)[C@@H](C)c1ccccc1)[C@@H](C)c1ccccc1)[C@@H](C)c1ccccc1)[C@@H](C)c1ccccc1 [15-AcOH] | 34.1±1.1 | 39.2 | > 100 | 6.3 (≈ 12 µg/mL) | 3.1 (≈ 5.88 µg/mL) |
| C[C@@H](c1ccccc1)N(CC(N)=O)C(=O)CN(C(=O)CN(CCCCN)C(=O)CN(C(=O)CN(CCc1c[nH]c2ccccc12)C(=O)CN(CCCCN)C(=O)CN(CCc1c[nH]c2ccccc12)C(=O)CN(C(=O)CN(CCCCN)C(=O)CN(C(=O)CN(C(=O)CNCCCCN)[C@@H](C)c1ccccc1)[C@@H](C)c1ccccc1)[C@@H](C)c1ccccc1)[C@@H](C)c1ccccc1)[C@@H](C)c1ccccc1 [15-HCl] | 33.4±9.7 | 50.4 | > 100 | 6.3 | 3.1 |
| C[C@@H](c1ccccc1)N(CC(=O)N(CCCCN)CC(=O)N(CCc1c[nH]c2ccccc12)CC(=O)N(CCc1c[nH]c2ccccc12)CC(N)=O)C(=O)CN(CCCCN)C(=O)CN(CCCCN)C(=O)CN(C(=O)CN(C(=O)CN(CCCCN)C(=O)CN(C(=O)CN(C(=O)CNCCCCN)[C@@H](C)c1ccccc1)[C@@H](C)c1ccccc1)[C@@H](C)c1ccccc1)[C@@H](C)c1ccccc1 [29-AcOH] (H-[Nlys][Nspe][Nspe][Nlys][Nspe][Nspe][Nlys][Nlys][Nspe][Nlys][Gly(N(CH2)2(3-indolyl))][Gly(N(CH2)2(3-indolyl))]-NH2) | 5.2±0.2 | > 100 | > 100 | 6.3 (≈ 11.7 µg/mL) | 12.5 (≈ 23.3 µg/mL) |
